Test [1] deals with PPARg (Homo sapiens, UniProt P37231). The experiment in a line: biochemical. On the set-up: Safety pharmacology off-target panel at Eurofins, radioligand binding with agonist or antagonist radioligand (Supplementary Table 2). Particulars: agonist radioligand. As for the experimental part:
(§1) Wide-range phosphatase, kinase and preclinical safety pharmacology off-target activity screens were conducted at Eurofins (Extended Data Table 5 and Supplementary Tables 1 and 2). A small phosphatase panel was developed at AbbVie to assess IC50 values on select phosphatases. The following enzymes used in the phosphatase selectivity panel were purchased from Eurofins: PTPN1 (PTP1B; 14–621), PTPN2 (TC-PTP; 14–646), PTPN9 (14–592), SHP1 (14–591) and SHP2 (14–622). The catalytic activity of the phosphatase was monitored using the small-molecule substrate DiFMUP (ThermoFisher) in a fluorescence assay format. In brief, the phosphatase reactions were performed at room temperature in the following assay buffer: 50 mM HEPES, pH 7.2, 100 mM NaCl, 1 mM EDTA, 0.005% Tween-20 and 5 mM TCEP. Each phosphatase was incubated with increasing concentrations of AC484 for 5 min, after which the substrate DiFMUP was added and incubated at 25 °C for 30 min. The final concentration of the enzyme and substrate was maintained at 0.5 nM and 5 μM, respectively, in all the assays. The reaction was then quenched by the addition of a 100 μM solution of bpV(Phen) (Enzo Life Sciences). The fluorescence signal was monitored using an Envision microplate reader (Perkin-Elmer) using excitation and emission wavelengths of 340 nm and 450 nm, respectively. The dose–response curves for the inhibitors were analysed using normalized IC50 regression curve fitting with control-based normalization. Supplementary file 41586_2023_6575_MOESM4_ESM.xlsx: Supplementary Table 2 AC484 receptor selectivity screen.

The target of test [2] is T1, Y1 (Homo sapiens, UniProt P25929).
T1 construct: gene NPY1R
The experiment in a line: biochemical. Particulars: agonist radioligand. On the set-up: Safety pharmacology off-target panel at Eurofins, radioligand binding with agonist or antagonist radioligand (Supplementary Table 2). As for the experimental part: as §1

In test [3] the target is T2, GABAA1 (a1.b2.g2) (Homo sapiens, UniProt P14867+P18507+P47870).
T2 construct: gene GABRA1; a1.b2.g2
The experiment in a line: biochemical. As to conditions: agonist radioligand. On the set-up: Safety pharmacology off-target panel at Eurofins, radioligand binding with agonist or antagonist radioligand (Supplementary Table 2). As for the experimental part:
as §1

Test [4] has as its target T3, 5-HT7 (Homo sapiens, UniProt P34969).
T3 construct: gene HTR7
The experiment in a line: biochemical. As to conditions: agonist radioligand. On the set-up: Safety pharmacology off-target panel at Eurofins, radioligand binding with agonist or antagonist radioligand (Supplementary Table 2). As for the experimental part: as §1

The target of test [5] is T4, 5-HT transporter (Homo sapiens, UniProt P31645).
T4 construct: gene SLC6A4
The experiment in a line: biochemical. Particulars: antagonist radioligand. On the set-up: Safety pharmacology off-target panel at Eurofins, radioligand binding with agonist or antagonist radioligand (Supplementary Table 2). As for the experimental part:
as §1

Test [6] has as its target T5, CGRP (Homo sapiens, UniProt O60894+Q16602).
T5 construct: gene RAMP1
The experiment in a line: biochemical. On the set-up: Safety pharmacology off-target panel at Eurofins, radioligand binding with agonist or antagonist radioligand (Supplementary Table 2). As to conditions: agonist radioligand. As for the experimental part: as §1

The target in test [7] is T6, 5-HT4e (Homo sapiens, UniProt Q13639).
T6 construct: gene HTR4; 5-HT4e isoform
The experiment in a line: biochemical. As to conditions: antagonist radioligand. On the set-up: Safety pharmacology off-target panel at Eurofins, radioligand binding with agonist or antagonist radioligand (Supplementary Table 2). As for the experimental part: as §1

In test [8] the target is T7, 5-HT3 (Homo sapiens, UniProt P46098).
T7 construct: gene HTR3A
The experiment in a line: biochemical. As to conditions: antagonist radioligand. On the set-up: Safety pharmacology off-target panel at Eurofins, radioligand binding with agonist or antagonist radioligand (Supplementary Table 2). As for the experimental part:
as §1

For test [9], the target named is T8, MT2 (ML1B) (Homo sapiens, UniProt P49286).
T8 construct: gene MTNR1B; ML1B
The experiment in a line: biochemical. As to conditions: agonist radioligand. On the set-up: Safety pharmacology off-target panel at Eurofins, radioligand binding with agonist or antagonist radioligand (Supplementary Table 2). As for the experimental part:
as §1

The target in test [10] is T9, a1A (h) (Homo sapiens, UniProt P35348).
T9 construct: gene ADRA1A
The experiment in a line: biochemical. On the set-up: Safety pharmacology off-target panel at Eurofins, radioligand binding with agonist or antagonist radioligand (Supplementary Table 2). As to conditions: antagonist radioligand. As for the experimental part: as §1

Test [11] has as its target T10, D1 (Homo sapiens, UniProt P21728).
T10 construct: gene DRD1
The experiment in a line: biochemical. On the set-up: Safety pharmacology off-target panel at Eurofins, radioligand binding with agonist or antagonist radioligand (Supplementary Table 2). Particulars: antagonist radioligand. As for the experimental part:
as §1

The target in test [12] is T11, A2B (h) (Homo sapiens, UniProt P29275).
T11 construct: gene ADORA2B
The experiment in a line: biochemical. On the set-up: Safety pharmacology off-target panel at Eurofins, radioligand binding with agonist or antagonist radioligand (Supplementary Table 2). As to conditions: antagonist radioligand. As for the experimental part:
as §1

Test [13] has as its target T12, ETA (Homo sapiens, UniProt P25101).
T12 construct: gene EDNRA
The experiment in a line: biochemical. Particulars: agonist radioligand. On the set-up: Safety pharmacology off-target panel at Eurofins, radioligand binding with agonist or antagonist radioligand (Supplementary Table 2). As for the experimental part: as §1

The target in test [14] is T13, 5-HT2A (Homo sapiens, UniProt P28223).
T13 construct: gene HTR2A
The experiment in a line: biochemical. As to conditions: antagonist radioligand. On the set-up: Safety pharmacology off-target panel at Eurofins, radioligand binding with agonist or antagonist radioligand (Supplementary Table 2). As for the experimental part:
as §1

In test [15] the target is T14, d (DOP) (Homo sapiens, UniProt P41143).
T14 construct: gene OPRD1; DOP
The experiment in a line: biochemical. On the set-up: Safety pharmacology off-target panel at Eurofins, radioligand binding with agonist or antagonist radioligand (Supplementary Table 2). Particulars: agonist radioligand. As for the experimental part: as §1

Test [16] deals with T15, 5-HT1A (Homo sapiens, UniProt P08908).
T15 construct: gene HTR1A
The experiment in a line: biochemical. On the set-up: Safety pharmacology off-target panel at Eurofins, radioligand binding with agonist or antagonist radioligand (Supplementary Table 2). As to conditions: agonist radioligand. As for the experimental part: as §1

Test [17] concerns the target T16, PTPN1 (Homo sapiens, UniProt P18031).
T16 construct: full-length recombinant
The experiment in a line: mobility shift enzyme assay with labelled insulin receptor phosphopeptide (crystal with PTPN1 mentioned, data not shown). Format: biochemical.

Test [18] has as its target T17, TAK1-TAB1 (Homo sapiens, UniProt O43318).
T17 construct: gene MAP3K7
The experiment in a line: biochemical. On the set-up: Kinase selectivity panel, IC50 of AC484 (Supplementary Table 1).

Test [19] concerns the target CAMK1D (Homo sapiens, UniProt Q8IU85). The experiment in a line: biochemical. On the set-up: Kinase selectivity panel, IC50 of AC484 (Supplementary Table 1).

Each structure is given as a SMILES string.

T4 sequence (P31645 whole entry): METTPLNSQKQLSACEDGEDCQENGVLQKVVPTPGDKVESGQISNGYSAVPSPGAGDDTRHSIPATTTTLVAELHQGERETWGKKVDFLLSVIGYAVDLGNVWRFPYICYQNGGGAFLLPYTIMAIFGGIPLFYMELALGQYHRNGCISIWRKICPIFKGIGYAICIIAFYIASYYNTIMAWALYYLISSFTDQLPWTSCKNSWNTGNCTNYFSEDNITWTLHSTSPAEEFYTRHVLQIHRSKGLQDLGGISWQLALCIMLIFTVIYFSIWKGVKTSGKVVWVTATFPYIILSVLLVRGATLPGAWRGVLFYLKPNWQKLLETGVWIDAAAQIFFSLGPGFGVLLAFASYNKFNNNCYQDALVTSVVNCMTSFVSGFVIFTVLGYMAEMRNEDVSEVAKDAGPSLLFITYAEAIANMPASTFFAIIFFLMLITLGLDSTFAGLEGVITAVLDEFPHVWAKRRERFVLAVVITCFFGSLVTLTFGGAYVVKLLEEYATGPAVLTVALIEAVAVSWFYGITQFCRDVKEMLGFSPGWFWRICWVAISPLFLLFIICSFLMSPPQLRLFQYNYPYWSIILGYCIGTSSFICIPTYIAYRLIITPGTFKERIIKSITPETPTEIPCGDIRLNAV
T9 sequence (P35348 whole entry): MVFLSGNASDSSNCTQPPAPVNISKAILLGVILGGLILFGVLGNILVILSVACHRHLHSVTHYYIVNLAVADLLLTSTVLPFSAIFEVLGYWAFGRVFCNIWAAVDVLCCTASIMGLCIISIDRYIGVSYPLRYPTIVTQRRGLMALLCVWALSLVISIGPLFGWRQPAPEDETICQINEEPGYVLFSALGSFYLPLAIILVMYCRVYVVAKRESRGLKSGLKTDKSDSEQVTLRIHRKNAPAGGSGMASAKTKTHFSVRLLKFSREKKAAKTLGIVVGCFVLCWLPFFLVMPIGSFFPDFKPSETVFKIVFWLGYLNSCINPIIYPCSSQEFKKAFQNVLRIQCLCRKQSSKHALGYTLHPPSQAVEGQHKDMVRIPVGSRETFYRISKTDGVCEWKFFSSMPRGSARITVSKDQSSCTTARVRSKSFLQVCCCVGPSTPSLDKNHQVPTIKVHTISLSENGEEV
PPARg, sequence (P37231 whole entry): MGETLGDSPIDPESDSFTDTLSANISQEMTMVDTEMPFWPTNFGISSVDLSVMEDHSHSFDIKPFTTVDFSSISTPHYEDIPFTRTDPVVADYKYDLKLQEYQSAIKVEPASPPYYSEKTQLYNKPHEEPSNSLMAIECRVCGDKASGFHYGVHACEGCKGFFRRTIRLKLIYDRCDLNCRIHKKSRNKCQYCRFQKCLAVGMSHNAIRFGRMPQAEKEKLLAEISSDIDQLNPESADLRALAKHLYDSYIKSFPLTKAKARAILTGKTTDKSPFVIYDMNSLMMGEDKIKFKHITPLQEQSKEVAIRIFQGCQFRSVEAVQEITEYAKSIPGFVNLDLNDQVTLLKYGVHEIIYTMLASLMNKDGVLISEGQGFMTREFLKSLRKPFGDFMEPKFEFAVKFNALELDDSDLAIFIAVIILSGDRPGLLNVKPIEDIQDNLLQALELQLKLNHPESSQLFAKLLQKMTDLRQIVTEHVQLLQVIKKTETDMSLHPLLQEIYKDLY
T15 sequence (P08908 whole entry): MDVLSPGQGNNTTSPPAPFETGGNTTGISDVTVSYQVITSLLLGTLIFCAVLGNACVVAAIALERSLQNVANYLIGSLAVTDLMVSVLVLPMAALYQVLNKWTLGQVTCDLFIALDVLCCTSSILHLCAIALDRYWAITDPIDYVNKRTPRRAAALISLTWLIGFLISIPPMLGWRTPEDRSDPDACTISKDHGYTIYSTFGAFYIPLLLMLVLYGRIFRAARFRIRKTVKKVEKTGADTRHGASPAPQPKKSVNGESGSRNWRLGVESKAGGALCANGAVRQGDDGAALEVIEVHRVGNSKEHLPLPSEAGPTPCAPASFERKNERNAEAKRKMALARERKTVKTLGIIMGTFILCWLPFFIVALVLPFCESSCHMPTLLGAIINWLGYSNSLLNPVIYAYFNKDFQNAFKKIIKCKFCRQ
T16 sequence (P18031 whole entry): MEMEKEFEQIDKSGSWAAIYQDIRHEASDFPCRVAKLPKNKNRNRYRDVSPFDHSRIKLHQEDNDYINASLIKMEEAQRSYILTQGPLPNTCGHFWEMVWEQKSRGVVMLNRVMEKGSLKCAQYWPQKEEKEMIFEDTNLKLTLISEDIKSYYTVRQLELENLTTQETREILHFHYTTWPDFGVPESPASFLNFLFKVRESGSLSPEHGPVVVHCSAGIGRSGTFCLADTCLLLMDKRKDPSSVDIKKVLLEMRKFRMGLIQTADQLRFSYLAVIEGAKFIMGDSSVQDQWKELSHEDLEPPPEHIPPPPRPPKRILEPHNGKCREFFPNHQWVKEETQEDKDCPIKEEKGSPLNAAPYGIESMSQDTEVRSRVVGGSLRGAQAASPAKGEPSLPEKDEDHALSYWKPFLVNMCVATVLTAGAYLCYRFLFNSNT
T5 sequence (O60894 whole entry): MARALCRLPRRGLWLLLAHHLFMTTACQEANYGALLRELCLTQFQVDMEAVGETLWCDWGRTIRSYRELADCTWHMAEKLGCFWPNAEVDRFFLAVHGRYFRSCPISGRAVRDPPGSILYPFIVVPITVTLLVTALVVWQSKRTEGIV
T5 sequence (Q16602 whole entry): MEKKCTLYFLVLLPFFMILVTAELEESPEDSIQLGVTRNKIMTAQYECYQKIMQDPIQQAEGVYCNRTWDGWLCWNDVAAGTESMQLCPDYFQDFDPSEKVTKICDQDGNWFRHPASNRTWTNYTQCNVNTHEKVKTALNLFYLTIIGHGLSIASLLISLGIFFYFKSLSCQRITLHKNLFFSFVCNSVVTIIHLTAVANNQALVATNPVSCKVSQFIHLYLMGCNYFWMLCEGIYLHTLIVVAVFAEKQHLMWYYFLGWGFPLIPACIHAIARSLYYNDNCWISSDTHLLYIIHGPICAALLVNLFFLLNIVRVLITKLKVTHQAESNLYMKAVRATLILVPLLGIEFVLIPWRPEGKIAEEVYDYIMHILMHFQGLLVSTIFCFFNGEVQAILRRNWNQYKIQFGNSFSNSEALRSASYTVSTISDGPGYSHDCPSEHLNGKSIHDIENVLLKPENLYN
T1 sequence (P25929 whole entry): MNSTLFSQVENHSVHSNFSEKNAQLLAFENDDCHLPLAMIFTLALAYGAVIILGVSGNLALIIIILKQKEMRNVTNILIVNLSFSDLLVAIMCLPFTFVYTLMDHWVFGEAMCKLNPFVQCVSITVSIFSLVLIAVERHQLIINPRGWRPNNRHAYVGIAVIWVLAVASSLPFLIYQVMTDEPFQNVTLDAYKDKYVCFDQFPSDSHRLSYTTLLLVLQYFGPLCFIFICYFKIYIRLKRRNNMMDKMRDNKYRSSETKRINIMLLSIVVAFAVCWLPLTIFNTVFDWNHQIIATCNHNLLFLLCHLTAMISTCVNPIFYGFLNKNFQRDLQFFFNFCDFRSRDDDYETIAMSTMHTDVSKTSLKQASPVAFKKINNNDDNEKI
T8 sequence (P49286 whole entry): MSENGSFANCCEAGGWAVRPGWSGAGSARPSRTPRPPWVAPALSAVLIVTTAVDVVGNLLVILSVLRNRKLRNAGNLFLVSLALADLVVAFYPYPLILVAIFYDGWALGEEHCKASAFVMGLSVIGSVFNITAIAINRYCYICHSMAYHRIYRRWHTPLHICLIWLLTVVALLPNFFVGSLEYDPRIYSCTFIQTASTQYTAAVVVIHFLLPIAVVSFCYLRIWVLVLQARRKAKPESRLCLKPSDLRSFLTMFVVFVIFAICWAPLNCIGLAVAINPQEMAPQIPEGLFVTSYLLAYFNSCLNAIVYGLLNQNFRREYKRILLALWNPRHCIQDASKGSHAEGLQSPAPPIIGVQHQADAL
T14 sequence (P41143 whole entry): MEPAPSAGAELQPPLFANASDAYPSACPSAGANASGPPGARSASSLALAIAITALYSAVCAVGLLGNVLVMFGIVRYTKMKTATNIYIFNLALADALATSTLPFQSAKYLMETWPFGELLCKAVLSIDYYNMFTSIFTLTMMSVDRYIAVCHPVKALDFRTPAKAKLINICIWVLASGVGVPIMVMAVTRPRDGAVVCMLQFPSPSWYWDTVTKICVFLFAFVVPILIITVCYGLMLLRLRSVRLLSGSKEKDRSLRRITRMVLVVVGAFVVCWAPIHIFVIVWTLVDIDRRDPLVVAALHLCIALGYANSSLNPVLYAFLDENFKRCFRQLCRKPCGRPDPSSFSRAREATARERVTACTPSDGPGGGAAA
T3 sequence (P34969 whole entry): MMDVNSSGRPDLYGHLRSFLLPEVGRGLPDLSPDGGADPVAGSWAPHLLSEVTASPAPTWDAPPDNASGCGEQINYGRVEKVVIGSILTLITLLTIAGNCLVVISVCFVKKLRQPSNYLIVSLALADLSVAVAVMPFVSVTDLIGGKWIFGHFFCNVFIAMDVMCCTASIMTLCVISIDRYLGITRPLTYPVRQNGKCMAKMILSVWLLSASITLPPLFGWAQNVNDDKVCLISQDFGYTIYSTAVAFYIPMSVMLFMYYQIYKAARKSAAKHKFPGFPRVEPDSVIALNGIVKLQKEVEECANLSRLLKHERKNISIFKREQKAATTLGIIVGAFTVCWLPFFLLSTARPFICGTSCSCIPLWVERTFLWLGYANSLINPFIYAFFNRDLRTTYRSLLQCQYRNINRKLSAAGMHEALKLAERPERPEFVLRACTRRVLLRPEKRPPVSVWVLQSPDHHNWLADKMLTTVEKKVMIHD

As to `CC(C)CCN[C@@H]1CCc2cc(O)c(N3CC(=O)NS3(=O)=O)c(F)c2C1` [AC484, ABBV-CLS-484], the half-maximal activity concentration (AC50) in [1], in [2], in test [3], in test [4], in [5] and in test [6] was above 0.01 mM each time. Also, the concentration at half-maximal activity (AC50) in test [7], in [8], in test [9], in test [10], in [11] and in test [12] was above 0.01 mM each time. Further, the AC50 in test [13], in test [14], in test [15] and in test [16] was above 0.01 mM each time. Further, the IC50 was 0.0025 µM in test [17], above 10 µM in [18] and above 10 µM in [19].

As a reminder, the AC50 is the midpoint of the concentration-response curve, whichever way the signal moves. A lower AC50 goes with activity at low concentration. Usually IC50 stands for the point on the concentration scale where inhibition reaches its midpoint.

The record behind these values is article PMC10599993, “The PTPN2/PTPN1 inhibitor ABBV-CLS-484 unleashes potent anti-tumour immunity” (Nature, 2023).
